Assay results as given in ChEMBL document CHEMBL4265943, “Design and synthesis of potent dual inhibitors of JAK2 and HDAC based on fusing the pharmacophores of XL019 and vorinostat” (Eur J Med Chem, 2018).

tested on: PC-3; test: Antiproliferative activity against human PC3 cells after 72 hrs by MTT assay; assay type: functional, cell-based; settings: PC-3, 72 h

IC50	SMILES
14900 nM	O=C(Nc1ccc(-c2ccnc(Nc3ccc(N4CCOCC4)cc3)n2)cc1)[C@@H]1CCCN1

tested on: not listed separately; test: Antiproliferative activity against human AC10 cells after 72 hrs by MTT assay; assay type: cell-based; settings: not given

SMILES	CC50 at 72 h
O=C(CCCCCCC(=O)Nc1ccc(-c2ccnc(Nc3cccc(N4CCCCC4)c3)n2)cc1)NO	5340 nM

tested on: not listed separately; test: Selectivity index, ratio of CC50 for human AC10 cells to IC50 for human PC3 cells; assay type: toxicity; settings: AC10 cells (CC50) and PC3 cells (IC50)

SMILES	selectivity ratio
O=C(CCCCCCC(=O)Nc1ccc(-c2ccnc(Nc3cccc(N4CCCCC4)c3)n2)cc1)NO	7.12

tested on: HCT-116; test: Antiproliferative activity against human HCT116 cells after 72 hrs by MTT assay; assay type: functional, cell-based; settings: HCT-116, 72 h

IC50	SMILES
7340 nM	O=C(Nc1ccc(-c2ccnc(Nc3ccc(N4CCOCC4)cc3)n2)cc1)[C@@H]1CCCN1

tested on: not listed separately; test: Selectivity index, ratio of CC50 for human AC10 cells to IC50 for human MDA-MB-231 cells; assay type: toxicity; settings: AC10 cells (CC50) and MDA-MB-231 cells (IC50)

SMILES	selectivity ratio
O=C(CCCCCCC(=O)Nc1ccc(-c2ccnc(Nc3cccc(N4CCCCC4)c3)n2)cc1)NO	4.02

tested on: MCF7; test: Antiproliferative activity against human MCF7 cells after 72 hrs by MTT assay; assay type: functional, cell-based; settings: MCF7, 72 h

IC50	SMILES
810 nM	O=C(CCCCCCC(=O)Nc1ccccc1)NO [VORINOSTAT]
27200 nM	O=C(Nc1ccc(-c2ccnc(Nc3ccc(N4CCOCC4)cc3)n2)cc1)[C@@H]1CCCN1

molecular target: Tyrosine-protein kinase JAK2 (Homo sapiens, UniProt O60674); test: Inhibition of human JAK2 using poly(Glu:Tyr)(4:1) as substrate preincubated for 20 mins followed by [gamma33P]ATP addition measured after 120 mins by ion exchange filter paper method; settings: not given
Sequence (O60674 whole entry): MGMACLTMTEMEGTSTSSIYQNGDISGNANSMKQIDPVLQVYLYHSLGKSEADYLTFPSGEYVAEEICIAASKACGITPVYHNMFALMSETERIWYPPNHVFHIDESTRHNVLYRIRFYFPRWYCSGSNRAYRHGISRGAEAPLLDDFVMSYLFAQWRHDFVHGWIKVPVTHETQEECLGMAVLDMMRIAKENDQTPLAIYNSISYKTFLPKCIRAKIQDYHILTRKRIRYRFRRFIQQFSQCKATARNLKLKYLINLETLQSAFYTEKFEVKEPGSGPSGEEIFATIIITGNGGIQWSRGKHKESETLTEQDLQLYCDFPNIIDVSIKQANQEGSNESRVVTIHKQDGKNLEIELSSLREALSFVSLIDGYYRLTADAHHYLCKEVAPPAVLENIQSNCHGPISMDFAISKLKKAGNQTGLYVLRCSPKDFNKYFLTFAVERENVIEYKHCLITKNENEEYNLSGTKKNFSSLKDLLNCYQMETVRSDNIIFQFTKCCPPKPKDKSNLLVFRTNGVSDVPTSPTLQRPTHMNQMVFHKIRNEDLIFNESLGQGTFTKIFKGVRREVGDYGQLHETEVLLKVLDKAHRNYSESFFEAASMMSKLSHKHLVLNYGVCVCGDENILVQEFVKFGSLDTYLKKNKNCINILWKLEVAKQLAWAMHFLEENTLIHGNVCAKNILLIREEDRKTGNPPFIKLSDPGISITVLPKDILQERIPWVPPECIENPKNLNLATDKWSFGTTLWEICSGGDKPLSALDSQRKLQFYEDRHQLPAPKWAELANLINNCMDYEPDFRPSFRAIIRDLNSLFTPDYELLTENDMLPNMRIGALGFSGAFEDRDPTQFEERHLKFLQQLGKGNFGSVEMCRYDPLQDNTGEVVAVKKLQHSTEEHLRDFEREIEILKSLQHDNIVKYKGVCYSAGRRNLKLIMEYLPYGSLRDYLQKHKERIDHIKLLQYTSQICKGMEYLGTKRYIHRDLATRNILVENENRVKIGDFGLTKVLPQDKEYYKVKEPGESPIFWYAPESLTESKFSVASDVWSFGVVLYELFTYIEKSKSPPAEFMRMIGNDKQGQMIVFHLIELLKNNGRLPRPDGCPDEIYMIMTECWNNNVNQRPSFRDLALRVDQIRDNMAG

SMILES	IC50
COC(=O)CCCCCCOc1ccc(Nc2nccc(-c3ccc(NC(C)=O)cc3)n2)cc1	239 nM
CC(=O)Nc1ccc(-c2ccnc(Nc3cccc(N4CCOCC4)c3)n2)cc1	19.6 nM
CC(=O)Nc1ccc(-c2ccnc(Nc3ccc(N4CCN(C)CC4)cc3)n2)cc1	7.9 nM

The next lines start with the values.

IC50	SMILES
13.8 nM	CC(=O)Nc1ccc(-c2ccnc(Nc3cccc(N4CCCCC4)c3)n2)cc1
2.9 nM	CC(=O)Nc1ccc(-c2ccnc(Nc3ccc(N4CCCCC4)cc3)n2)cc1
6.6 nM	O=C(CCCCCCC(=O)Nc1ccc(-c2ccnc(Nc3cccc(N4CCCCC4)c3)n2)cc1)NO

tested on: not listed separately; test: Antiproliferative activity against mouse TAMH cells after 72 hrs by MTT assay; assay type: cell-based; settings: not given

SMILES	CC50 at 72 h
O=C(CCCCCCC(=O)Nc1ccc(-c2ccnc(Nc3cccc(N4CCCCC4)c3)n2)cc1)NO	4690 nM

tested on: not listed separately; test: Selectivity index, ratio of CC50 for human AC10 cells to IC50 for human MCF7 cells; assay type: toxicity; settings: AC10 cells (CC50) and MCF7 cells (IC50)

SMILES	selectivity ratio
O=C(CCCCCCC(=O)Nc1ccc(-c2ccnc(Nc3cccc(N4CCCCC4)c3)n2)cc1)NO	5.04

tested on: MDA-MB-231; test: Antiproliferative activity against human MDA-MB-231 cells after 72 hrs by MTT assay; assay type: functional, cell-based; settings: MDA-MB-231, 72 h

IC50	SMILES
9670 nM	O=C(Nc1ccc(-c2ccnc(Nc3ccc(N4CCOCC4)cc3)n2)cc1)[C@@H]1CCCN1

tested on: not listed separately; test: Selectivity index, ratio of CC50 for mouse TAMH cells to IC50 for human PC3 cells; assay type: toxicity; settings: TAMH cells (CC50) and PC3 cells (IC50)

SMILES	selectivity ratio
O=C(CCCCCCC(=O)Nc1ccc(-c2ccnc(Nc3cccc(N4CCCCC4)c3)n2)cc1)NO	6.25

tested on: not listed separately; test: Selectivity index, ratio of CC50 for mouse TAMH cells to IC50 for human HCT116 cells; assay type: toxicity; settings: TAMH cells (CC50) and HCT116 cells (IC50)

SMILES	selectivity ratio
O=C(CCCCCCC(=O)Nc1ccc(-c2ccnc(Nc3cccc(N4CCCCC4)c3)n2)cc1)NO	2.81

tested on: not listed separately; test: Selectivity index, ratio of CC50 for mouse TAMH cells to IC50 for human MDA-MB-231 cells; assay type: toxicity; settings: TAMH cells (CC50) and MDA-MB-231 cells (IC50)

SMILES	selectivity ratio
O=C(CCCCCCC(=O)Nc1ccc(-c2ccnc(Nc3cccc(N4CCCCC4)c3)n2)cc1)NO	3.53

tested on: not listed separately; test: Selectivity index, ratio of CC50 for human AC10 cells to IC50 for human HCT116 cells; assay type: toxicity; settings: AC10 cells (CC50) and HCT116 cells (IC50)

SMILES	selectivity ratio
O=C(CCCCCCC(=O)Nc1ccc(-c2ccnc(Nc3cccc(N4CCCCC4)c3)n2)cc1)NO	3.2

molecular target: Histone deacetylase 1 (Homo sapiens, UniProt Q13547); test: Inhibition of HDAC1 (unknown origin) using Arg-His-Lys-Lys(Ac) as substrate preincubated with enzyme followed by substrate addition for 2 hrs and measured for 1.5 hrs at 15 mins time interval by fluorescence assay; settings: not given
Sequence (Q13547 whole entry): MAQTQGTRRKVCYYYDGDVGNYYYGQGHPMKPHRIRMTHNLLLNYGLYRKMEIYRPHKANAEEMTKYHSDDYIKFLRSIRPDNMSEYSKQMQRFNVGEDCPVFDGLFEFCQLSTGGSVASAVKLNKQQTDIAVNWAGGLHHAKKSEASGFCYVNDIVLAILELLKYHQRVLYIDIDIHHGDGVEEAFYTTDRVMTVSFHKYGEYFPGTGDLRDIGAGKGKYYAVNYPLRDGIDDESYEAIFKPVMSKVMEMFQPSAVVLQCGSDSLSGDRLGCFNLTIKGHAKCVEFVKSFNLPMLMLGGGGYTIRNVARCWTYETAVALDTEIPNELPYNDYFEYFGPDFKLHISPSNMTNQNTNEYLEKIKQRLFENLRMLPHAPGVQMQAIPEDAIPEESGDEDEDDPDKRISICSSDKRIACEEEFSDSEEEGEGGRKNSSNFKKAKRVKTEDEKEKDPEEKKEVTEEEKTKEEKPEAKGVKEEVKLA

IC50	SMILES
> 10000 nM	COC(=O)CCCCCCOc1ccc(Nc2nccc(-c3ccc(NC(C)=O)cc3)n2)cc1
179 nM	O=C(CCCCCCC(=O)Nc1ccc(-c2ccnc(Nc3cccc(N4CCCCC4)c3)n2)cc1)NO

molecular target: T1, Protein deacetylase HDAC6 (Homo sapiens, UniProt Q9UBN7); test: Inhibition of HDAC6 (unknown origin) using Arg-His-Lys-Lys(Ac) as substrate preincubated with enzyme followed by substrate addition for 2 hrs and measured for 1.5 hrs at 15 mins time interval by fluorescence assay; settings: not given
T1 sequence (Q9UBN7 whole entry): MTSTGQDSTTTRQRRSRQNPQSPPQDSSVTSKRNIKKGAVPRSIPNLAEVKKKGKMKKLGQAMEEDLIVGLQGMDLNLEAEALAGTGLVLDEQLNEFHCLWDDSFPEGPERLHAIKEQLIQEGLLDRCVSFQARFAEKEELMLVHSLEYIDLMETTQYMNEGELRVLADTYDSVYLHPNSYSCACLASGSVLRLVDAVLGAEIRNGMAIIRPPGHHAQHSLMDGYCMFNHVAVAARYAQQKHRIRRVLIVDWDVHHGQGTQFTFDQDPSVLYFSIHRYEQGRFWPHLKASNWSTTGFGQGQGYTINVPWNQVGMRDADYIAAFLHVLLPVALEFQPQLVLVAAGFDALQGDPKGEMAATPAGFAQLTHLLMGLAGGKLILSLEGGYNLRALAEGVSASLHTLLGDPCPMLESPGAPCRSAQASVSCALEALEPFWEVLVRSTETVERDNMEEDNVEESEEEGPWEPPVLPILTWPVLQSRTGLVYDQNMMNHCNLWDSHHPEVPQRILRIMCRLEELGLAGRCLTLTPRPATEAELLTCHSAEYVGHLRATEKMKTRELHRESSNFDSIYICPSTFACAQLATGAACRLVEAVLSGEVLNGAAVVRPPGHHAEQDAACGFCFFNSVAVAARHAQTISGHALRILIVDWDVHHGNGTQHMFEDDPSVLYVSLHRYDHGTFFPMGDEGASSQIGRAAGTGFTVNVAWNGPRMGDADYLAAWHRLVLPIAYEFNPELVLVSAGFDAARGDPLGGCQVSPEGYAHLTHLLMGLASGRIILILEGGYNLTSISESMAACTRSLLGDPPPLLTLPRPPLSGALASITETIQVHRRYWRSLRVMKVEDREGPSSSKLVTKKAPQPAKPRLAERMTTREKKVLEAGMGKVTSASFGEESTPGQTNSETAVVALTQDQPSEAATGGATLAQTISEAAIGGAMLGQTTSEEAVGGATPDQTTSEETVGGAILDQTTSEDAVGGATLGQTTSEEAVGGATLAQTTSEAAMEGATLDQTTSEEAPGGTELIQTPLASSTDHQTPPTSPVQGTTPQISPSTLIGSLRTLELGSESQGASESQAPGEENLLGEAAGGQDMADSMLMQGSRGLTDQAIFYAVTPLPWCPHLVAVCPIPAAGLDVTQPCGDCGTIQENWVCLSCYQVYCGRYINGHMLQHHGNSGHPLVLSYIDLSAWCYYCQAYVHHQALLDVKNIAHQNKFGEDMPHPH

IC50	SMILES
3150 nM	COC(=O)CCCCCCOc1ccc(Nc2nccc(-c3ccc(NC(C)=O)cc3)n2)cc1
9 nM	O=C(CCCCCCC(=O)Nc1ccc(-c2ccnc(Nc3cccc(N4CCCCC4)c3)n2)cc1)NO

tested on: not listed separately; test: Selectivity index, ratio of CC50 for mouse TAMH cells to IC50 for human MCF7 cells; assay type: toxicity; settings: TAMH cells (CC50) and MCF7 cells (IC50)

SMILES	selectivity ratio
O=C(CCCCCCC(=O)Nc1ccc(-c2ccnc(Nc3cccc(N4CCCCC4)c3)n2)cc1)NO	4.42
